Columns and labels:
[1] = test system: planktonic MRSA cultures; assay: Bacterial growth assay in cell-free planktonic MRSA cultures (OD600); type: cell-based, Staphylococcus aureus; conditions: for direct antibiotic effects against MRSA: planktonic cultures
Protocol: […] The absorbance was measured using an EnVision plate reader (PerkinElmer). The plates were incubated at 37°C overnight and the absorbance was measured again the next day. Real-time measurement of bioluminescence by the MRSA-lux strain was performed in a white flat-bottom 96-wells plate using a SpectraMax i3x plate reader and an integration time set at 9000 ms.

[2] = test system: intracellular MRSA in HeLa cells; assay: Gentamicin protection assay with CFU count in MRSA-infected HeLa cells; type: cell-based, Staphylococcus aureus; conditions: HeLa cells; for effect on intracellular MRSA burden: 991 used at 25 μM, rapamycin at 1 μM, Figure 5J
Protocol: The cells were resuspended in cell culture medium without antibiotics, seeded with 10,000 cells/well into Costar flat-bottom 96-well plates (Corning, Amsterdam, the Netherlands), and were incubated overnight at 37°C/5% CO2. The next day, the bacteria were centrifuged at ≥1800 g for 15 min and resuspended in cold PBS + 5 mM ethylenediaminetetraacetic acid (EDTA). The number of CFUs present in the bacterial suspension was estimated from the optical density at 600 nm (OD600) by assuming 8x10^8 CFUs to be present in a bacterial suspension with OD600 = 1, based on prior titrations. The bacterial suspension was diluted in cell culture medium without antibiotics and added to the cells. Accuracy of the multiplicity of infection (MOI) was validated by plating serial dilutions of the MRSA inoculums on Difco TS agar plates (BD Biosciences). The calculated mean MOI throughout all experiments was 6.8 ± 4.6 (mean ± SD). Infected cells were centrifuged for 3 min at 150 g and incubated for 1 hour at 37°C/5% CO2. Next, the cells were incubated with fresh cell culture medium supplemented with 30 µg/ml gentamicin sulphate (Lonza BioWhittaker, Basel, Switzerland) for 15 min at 37°C/5% CO2 to kill residual extracellular bacteria. Infected cells were incubated overnight at 37°C/5% CO2 in cell culture medium in the presence of kinase inhibitors and 5 µg/ml gentamicin sulphate-containing medium to prevent the growth of extracellular bacteria. The solvent of the compounds, DMSO, was used at equal % v/v as a negative control. For the screen, each compound was tested in triplicate, on separate cell culture plates, resulting in triplicate values for each kinase inhibitor.
Infected cells were lysed in sterile water + 0.05% UltraPure SDS solution (Invitrogen, ThermoFisher Scientific) to release intracellular bacteria. Bacterial suspensions and lysates of cells infected with MRSA were 5-fold serially diluted and 10-μl drops were plated on square TS agar plates. The plates were left to dry and incubated overnight at 37°C/5% CO2.

[3] = test system: intracellular MRSA; type: cell-based, Staphylococcus aureus
In short: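 Values are z-scores: GFP-positive HeLa percentage and event count per well against plate statistics, minus the mean DMSO z-score. Wells deviating two-fold from controls were left out of plate means. Infection was at a mean MOI of 6.8, with an overnight compound exposure.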

[4] = test system: HeLa cells; assay: Compound screen by flow cytometry: HeLa cell count as surrogate readout of cell viability (z-scoreHeLa); type: cell-based, human
In short: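 The viability surrogate was the count of fixed HeLa cells by flow cytometry, converted to z-scores against DMSO controls with values deviating two-fold excluded. Before counting, cells had been infected with MRSA for 1 h and cleared of extracellular bacteria with gentamicin. They were then exposed overnight to kinase inhibitors in triplicate.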

[5] = test system: HER4; design: method as in Drewry et al., 2017; conditions: PKIS2, KinomeScan, ref Drewry et al., 2017; cited from earlier work
[6] = test system: HER2; design: method as in Drewry et al., 2017; conditions: PKIS2, KinomeScan, ref Drewry et al., 2017; cited from earlier work
[7] = test system: EGFR; design: method as in Drewry et al., 2017; conditions: PKIS2, KinomeScan, ref Drewry et al., 2017; cited from earlier work
[8] = test system: MRSA; conditions: especially against MRSA biofilm formation; ref Liu et al., 2022; cited from earlier work

For `CO/C1=C\C(C)=C\[C@@H](C)[C@@H](O)[C@@H](C)C/C(C)=C/C=C/[C@H](OC)[C@@H]([C@@H](C)[C@@H](O)[C@H](C)[C@@]2(O)C[C@@H](O)[C@H](C)[C@@H](C(C)C)O2)OC1=O` [bafilomycin A1, reference compound], the “direct antibiotic effects against MRSA” value ([1]; Supplementary Figure S5) was “not the case” and the “reduction in the intracellular bacterial burden” value ([2]; bafilomycin A1 alone (used at 100 nM)) was 70%.

With `CO[C@H]1C[C@@H]2CC[C@@H](C)[C@@](O)(O2)C(=O)C(=O)N2CCCC[C@H]2C(=O)O[C@H]([C@H](C)C[C@@H]2CC[C@@H](O)[C@H](OC)C2)CC(=O)[C@H](C)/C=C(\C)[C@@H](O)[C@@H](OC)C(=O)[C@H](C)C[C@H](C)/C=C/C=C/C=C/1C` [rapamycin, reference compound] the “direct antibiotic effects against MRSA” value ([1]; Supplementary Figure S5) was “not the case” and the “effect on intracellular MRSA burden” value [2] was “able to reduce the intracellular MRSA burden similar to GW296115X”.

With `NC(=O)c1cccc(Nc2nccc(Nc3ccc(Oc4cccc(Cl)c4)c(Cl)c3)n2)c1` [GW659008A] the “%GFP+ rep 1” value ([3]; PKIS compound screen raw data, MRSA-infected HeLa cells, replicate 1) was 9.2%, the “%GFP+ rep 2” value ([3]; PKIS compound screen raw data, MRSA-infected HeLa cells, replicate 2) was 10.5% and the “%GFP+ rep 3” value ([3]; PKIS compound screen raw data, MRSA-infected HeLa cells, replicate 3) was 10.3%. For the same compound, the “z-scoreMRSA+ mean” value ([3]; PKIS compound screen, MRSA-infected HeLa cells, mean of 3 replicates) was -2.69, the “z-scoreMRSA+ rep 1” value ([3]; PKIS compound screen, MRSA-infected HeLa cells, replicate 1) was -2.76 and the “z-scoreMRSA+ rep 2” value ([3]; PKIS compound screen, MRSA-infected HeLa cells, replicate 2) was -2.41. The “z-scoreMRSA+ rep 3” value ([3]; PKIS compound screen, MRSA-infected HeLa cells, replicate 3) was -2.89, the hit ([3]; PKIS compound screen, Yes/No call (effect without cell death)) was “Yes” and the effect ([3]; PKIS compound screen, Yes/No call on z-scoreMRSA+) was “Yes”. For the same compound, the inhibition at 10 µM ([1]; Staphylococcus aureus, MRSA, read-out: inhibition of planktonic MRSA growth) was 67.3%, the “cell count rep 1” value ([4]; PKIS compound screen raw data, HeLa cell count, replicate 1) was 25296 and the “cell count rep 2” value ([4]; PKIS compound screen raw data, HeLa cell count, replicate 2) was 38684. For the same compound, the “cell count rep 3” value ([4]; PKIS compound screen raw data, HeLa cell count, replicate 3) was 42387, the z-scoreHeLa mean ([4]; PKIS compound screen, HeLa cell count, mean of 3 replicates) was 0.60 and the “z-scoreHeLa rep 1” value ([4]; PKIS compound screen, HeLa cell count, replicate 1) was 0.78. For the same compound, the “z-scoreHeLa rep 2” value ([4]; PKIS compound screen, HeLa cell count, replicate 2) was 0.73, the “z-scoreHeLa rep 3” value ([4]; PKIS compound screen, HeLa cell count, replicate 3) was 0.30 and the cell death ([4]; PKIS compound screen, Yes/No call on z-scoreHeLa) was “No”.

For `CS(=O)(=O)CCNCc1nc(-c2ccc3ncnc(Nc4ccc(OCc5ccccc5)c(Cl)c4)c3c2)cs1` [GW582764], the “% inhibition at 1 µM HER4” value [5] is listed as 97.8% and the “% inhibition at 1 µM HER2” value [6] is listed as 100%.

For `CS(=O)(=O)CCNCc1nc(-c2ccc3ncnc(Nc4ccc(OCc5cccc(F)c5)c(Cl)c4)c3c2)cs1` [GW583340], the “% inhibition at 1 µM EGFR” value [7] is listed as 99.9%, the “% inhibition at 1 µM HER4” value [5] is listed as 99.1% and the “% inhibition at 1 µM HER2” value [6] is listed as 99.7%.

For `Cc1ccc(Oc2nc3cc(-c4ccc5c(ccn5C)c4)c(Cl)cc3[nH]2)cc1C(=O)O` [Compound 991, reference compound], the “direct antibiotic effects against MRSA” value ([1]; Supplementary Figure S5) was “shows direct antibiotic effects” and the “effect on intracellular MRSA burden” value [2] was “able to reduce the intracellular MRSA burden similar to GW296115X”.

For `CS(=O)(=O)CCNCc1ccc(-c2ccc3ncnc(Nc4ccc(OCc5cccc(F)c5)c(Cl)c4)c3c2)o1` [lapatinib, reference compound], the “concentrations resulting in direct antimicrobial effects” value [8] is given as “above 10 µM”, the “effect on planktonic MRSA growth (direct antibiotic effect)” value ([1]; up to 100 µM concentration, Supplementary Figure S5) is given as “did not observe this direct effect” and the “increase in the intracellular bacterial burden” value ([2]; 3 µM) is given as 80%. The “activity against intracellular MRSA” value ([2]; 10 and 30 µM) was “only modestly active”.

From PMC10999543, “Identification of kinase modulators as host-directed therapeutics against intracellular methicillin-resistant Staphylococcus aureus” (Frontiers in Cellular and Infection Microbiology, 2024)
